The record followed here is ChEMBL document CHEMBL1201862, “PubChem BioAssay data set” (2004).

Test systems include MOLT-4; NCI-H460; UACC-62; RPMI-8226; ACHN; U-251; SNB-75; LOX IMVI; OVCAR-5; SK-MEL-5; OVCAR-3; SN12C; HT-29; SR; KM12; SF-539; UACC-257; SK-MEL-2.
What all share (experiment): NCI anticancer screen, dose series, 48 h

SMILES strings stand for the structures.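 48-hour exposure; five concentrations; linearly interpolated endpoints. GI50 is the concentration that inhibits growth by half.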 Calls of active or inactive are those of the source. Rule as the data show it: active = GI50 up to about 1.1 µM and inactive = higher.

Take `CC(C)c1ccc2c(c1)CCC1C(C)(C)[C@@H](O)CC[C@]21C` (some centres not stated): the GI50 was 22.1 µM (inactive) in the experiment with MOLT-4; 17.9 µM (inactive) in the experiment on NCI-H460; 42.3 µM (inactive) in the experiment with UACC-62; 21.2 µM (inactive) with RPMI-8226; 47.4 µM (inactive) in the experiment with ACHN; 22.4 µM (inactive) in the experiment on U-251. In addition, the GI50 in the experiment with SNB-75 is 19.6 µM (inactive); with LOX IMVI, 15.1 µM (inactive); in the experiment on OVCAR-5 it was 18.8 µM (inactive); with SK-MEL-5 it was 17.3 µM (inactive); in the experiment on OVCAR-3, 34 µM (inactive); with SN12C, 20.9 µM (inactive). For the same compound, the GI50 in the experiment on HT-29 was 16.3 µM (inactive); in the experiment with SR, 16.5 µM (inactive); in the experiment on KM12, 22.3 µM (inactive); in the experiment with SF-539 it was 22.3 µM (inactive).

Consider `CC(=O)OC1=C2CC3(C)OC(=O)CC(C)(C)C3=CC=C2C=C(C(C)C)C1=O` (configuration not stated), for which the GI50 was 0.294 µM (active) in the experiment with MOLT-4; 1.51 µM (inactive) in the experiment on NCI-H460; 0.268 µM (active) with UACC-62; 0.22 µM (active) in the experiment with RPMI-8226; 0.49 µM (active) in the experiment with UACC-257; 0.518 µM (active) in the experiment on ACHN. The GI50 in the experiment with U-251 is 1.6 µM (inactive); with SNB-75 it was 0.71 µM (active); in the experiment with LOX IMVI it was 0.201 µM (active); in the experiment on OVCAR-5, 0.912 µM (active); in the experiment with SK-MEL-5, 0.826 µM (active); in the experiment on OVCAR-3 it was 1.13 µM (inactive). Moreover, the GI50 in the experiment with SN12C was 0.684 µM (active); in the experiment on HT-29, 1.07 µM (active); in the experiment on SR, 0.278 µM (active); in the experiment with KM12, 1.15 µM (inactive); with SK-MEL-2, 0.459 µM (active).

In the case of `Nc1ccc2c(c1)Oc1c(F)c(F)cc3c(=O)c(C(=O)O)cn-2c13`, the GI50 is 24 µM (inactive) in the experiment with MOLT-4; 31.3 µM (inactive) in the experiment with UACC-62; 25.2 µM (inactive) in the experiment on RPMI-8226; 34.2 µM (inactive) in the experiment with U-251; > 100 µM (inactive) with OVCAR-5; 17.1 µM (inactive) with SK-MEL-5. Besides, the GI50 in the experiment on OVCAR-3 was 22.1 µM (inactive); in the experiment on SN12C, 39.1 µM (inactive); in the experiment on HT-29, 35.2 µM (inactive); in the experiment with SR it was 34.6 µM (inactive); in the experiment on KM12, 23.6 µM (inactive); in the experiment on SF-539, 39.2 µM (inactive). Also, in the experiment on SK-MEL-2, the GI50 was 80.2 µM (inactive).

`COC(=O)c1ccccc1NC(=O)C(=O)NNC(=O)c1ccncc1`: the GI50 in the experiment with MOLT-4, in the experiment with NCI-H460, in the experiment on UACC-62, in the experiment with UACC-257, with ACHN and with SNB-75 was > 100 µM (inactive) in each case. Further, the GI50 in the experiment on LOX IMVI, with SK-MEL-5, in the experiment with OVCAR-3, in the experiment with SN12C, in the experiment on HT-29 and in the experiment on SR was > 100 µM (inactive) in each case. The GI50 in the experiment on KM12 and with SF-539 was > 100 µM (inactive) in each case.

For the compound `Cc1c(C(Cc2ccccc2N(C)C(=O)/C=C\C(=O)O)c2c[nH]c3ccccc23)c2ccccc2n1C` (configuration not stated), the GI50 is 22.9 µM (inactive) in the experiment with MOLT-4; 15.3 µM (inactive) with NCI-H460; 17.2 µM (inactive) with UACC-62; 15.7 µM (inactive) in the experiment on UACC-257; 17.1 µM (inactive) in the experiment with ACHN; 16.4 µM (inactive) in the experiment with U-251. The GI50 in the experiment with SNB-75 was 16.5 µM (inactive); in the experiment with LOX IMVI it was 15.3 µM (inactive); in the experiment with OVCAR-5, 21.2 µM (inactive); in the experiment with SK-MEL-5, 14.9 µM (inactive); in the experiment on OVCAR-3, 12.3 µM (inactive); with SN12C, 16 µM (inactive). Moreover, the GI50 in the experiment with HT-29 was 15.5 µM (inactive); in the experiment on SR, 16.9 µM (inactive); with KM12, 15.6 µM (inactive); with SF-539, 16.6 µM (inactive); in the experiment on SK-MEL-2, > 10 µM (inactive).

For `CCc1ccccc1NC(=O)C(=O)CC(=O)c1sc(Nc2ccccc2)nc1C`, the GI50 with MOLT-4 is 48.6 µM (inactive); with NCI-H460 it was > 100 µM (inactive); in the experiment with UACC-62, 99.5 µM (inactive); in the experiment with UACC-257, > 100 µM (inactive); in the experiment on ACHN, > 100 µM (inactive); with U-251, > 100 µM (inactive). Moreover, the GI50 is 67.9 µM (inactive) in the experiment with SNB-75; > 100 µM (inactive) with LOX IMVI; > 100 µM (inactive) with OVCAR-5; > 100 µM (inactive) in the experiment with SK-MEL-5; 80.5 µM (inactive) in the experiment with OVCAR-3; > 100 µM (inactive) with SN12C. Besides, the GI50 in the experiment with HT-29 was > 100 µM (inactive); with SR, 99.3 µM (inactive); in the experiment with KM12, > 100 µM (inactive); in the experiment on SF-539, > 100 µM (inactive); with SK-MEL-2 it was > 100 µM (inactive).

Turning to `Clc1ccc(C2=NOC3C4CCC(C4)C23)cc1` (configuration not stated), the GI50 is 59.4 µM (inactive) in the experiment with MOLT-4; > 100 µM (inactive) in the experiment with NCI-H460; > 100 µM (inactive) with UACC-62; 87.1 µM (inactive) with RPMI-8226; > 100 µM (inactive) in the experiment on UACC-257; > 100 µM (inactive) in the experiment on ACHN. The GI50 in the experiment with U-251, in the experiment on SNB-75, with OVCAR-5, in the experiment with SK-MEL-5, in the experiment with OVCAR-3 and in the experiment on SN12C was > 100 µM (inactive) throughout. Moreover, the GI50 is > 100 µM (inactive) in the experiment with HT-29; 61.2 µM (inactive) in the experiment on SR; > 100 µM (inactive) with KM12; > 100 µM (inactive) with SF-539; > 100 µM (inactive) in the experiment on SK-MEL-2.

With `CCOC(=O)NC(=O)c1cn(CC(=O)NCC(=O)NCC(=O)N2CCN(CCn3c(C)nc(C(N)=O)c3N)CC2)c(=O)[nH]c1=O`, the GI50 in the experiment on MOLT-4, in the experiment with NCI-H460, in the experiment with UACC-62, with UACC-257, in the experiment with ACHN and with U-251 was > 100 µM (inactive) each time. Besides, the GI50 with SNB-75, in the experiment on LOX IMVI, in the experiment with SK-MEL-5, with SN12C, in the experiment with HT-29 and in the experiment on SR was > 100 µM (inactive) each time. For the same compound, the GI50 in the experiment on KM12, with SF-539 and in the experiment on SK-MEL-2 was > 100 µM (inactive) throughout.

For `O=c1[nH]nc2ccccc2c1Cl`, the GI50 is 14 µM (inactive) in the experiment on MOLT-4; 18.5 µM (inactive) in the experiment on NCI-H460; 12.8 µM (inactive) in the experiment with UACC-62; 3.13 µM (inactive) in the experiment on RPMI-8226; 10.2 µM (inactive) in the experiment with UACC-257; 16.3 µM (inactive) in the experiment on ACHN. The GI50 is 15.8 µM (inactive) in the experiment with U-251; 10.7 µM (inactive) in the experiment on SNB-75; 17.6 µM (inactive) in the experiment with LOX IMVI; 18.3 µM (inactive) in the experiment with OVCAR-5; > 10 µM (inactive) with SK-MEL-5; 2.65 µM (inactive) in the experiment on OVCAR-3. The GI50 is 17.6 µM (inactive) with SN12C; 6.68 µM (inactive) with HT-29; 9.44 µM (inactive) in the experiment with KM12; 15.6 µM (inactive) with SF-539; 17.3 µM (inactive) in the experiment with SK-MEL-2.

With `Brc1ccc(/N=c2/nc3ccccn3n3nc(-c4ccccc4)cc23)cc1`, the GI50 was > 100 µM (inactive) in the experiment with MOLT-4; 45.1 µM (inactive) with NCI-H460; 15.1 µM (inactive) in the experiment with UACC-62; > 100 µM (inactive) in the experiment on RPMI-8226; 48.4 µM (inactive) in the experiment with UACC-257; 26.2 µM (inactive) with ACHN. In addition, the GI50 is 29 µM (inactive) with U-251; 52.4 µM (inactive) with SNB-75; > 100 µM (inactive) in the experiment with SK-MEL-5; 22.1 µM (inactive) with OVCAR-3; 81.8 µM (inactive) in the experiment with SN12C; 75.5 µM (inactive) in the experiment on HT-29. The GI50 was > 100 µM (inactive) in the experiment with SR, 39.9 µM (inactive) in the experiment on KM12, 28.3 µM (inactive) with SF-539 and 9.57 µM (inactive) in the experiment on SK-MEL-2.

With `O=C1C2=C(CCCC2)Nc2cccc3ncn1c23`, the GI50 in the experiment on MOLT-4, with NCI-H460, in the experiment on UACC-62, in the experiment on RPMI-8226, in the experiment on UACC-257 and in the experiment with ACHN was > 100 µM (inactive) each time. The GI50 with U-251, in the experiment on LOX IMVI, in the experiment on OVCAR-5, in the experiment on SK-MEL-5, with OVCAR-3 and in the experiment with SN12C was > 100 µM (inactive) throughout. In addition, the GI50 in the experiment with SR, in the experiment with KM12, in the experiment on SF-539 and in the experiment with SK-MEL-2 was > 100 µM (inactive) in each case.

As to `[N-]=[N+]=NC1CC(n2cc(COCC(F)(F)F)c(=O)[nH]c2=O)OC1CO` (configuration not stated), the GI50 with MOLT-4, in the experiment on NCI-H460, with UACC-62, in the experiment on RPMI-8226, in the experiment on UACC-257 and in the experiment on ACHN was > 100 µM (inactive) in each case. The GI50 in the experiment with U-251, in the experiment with SNB-75, in the experiment with LOX IMVI, with OVCAR-5, with SK-MEL-5 and in the experiment with OVCAR-3 was > 100 µM (inactive) each time. The GI50 with SN12C, in the experiment with HT-29, in the experiment on KM12, with SF-539 and in the experiment on SK-MEL-2 was > 100 µM (inactive) each time.
